Earlier results, collected in patent publication US20260199330A1, “MEDICAL METHOD AND USE” (ViiV Healthcare UK (No.3) Limited, priority 2024, published 2026).

Key:
[1] = oral 60 mg once daily for 2 years, LAI116482 (LATTE)
[2] = supratherapeutic oral CAB 150 mg q12 h×3 doses, TQT study

SMILES: C[C@H]1CO[C@@H]2Cn3cc(C(=O)NCc4ccc(F)cc4F)c(=O)c(O)c3C(=O)N12 [Cabotegravir, (3S, 11aR)-N-((2,4-difluorophenyl)methyl)-6-hydroxy-3-methyl-5,7-dioxo-2,3,5, 11,11a-hexahydro(1,3)oxazolo(3,2-a)pyrido(1,2-d)pyrazine-8-carboxamide]
- median (steady state) Cmax, long-term safety threshold [1]: 13100 ng/mL
- geometric mean Cmax, short-term safety threshold [2]: 22500 ng/mL
